Data reported in US12084420B2, “Indoline compounds for inhibiting KIF18A” (Volastra Therapeutics, Inc., priority 2021, dated 2024).
Read-outs that look alike come from different tables or passages of the source.

What was measured:
[1] = molecular target: KIF18a-Microtubule Complex (Homo sapiens (Human), UniProt Q8NI77); assay: Binding kinetics to KIF18a-microtubule complex (global progress curve analysis); details: for Ki: read-out: KI (determined from binding kinetic assay koff/kon), koff/kon; for koff: read-out: koff (off-rate from binding kinetics assay)
Chain of KIF18a-Microtubule Complex (Q8NI77 whole entry, looked up): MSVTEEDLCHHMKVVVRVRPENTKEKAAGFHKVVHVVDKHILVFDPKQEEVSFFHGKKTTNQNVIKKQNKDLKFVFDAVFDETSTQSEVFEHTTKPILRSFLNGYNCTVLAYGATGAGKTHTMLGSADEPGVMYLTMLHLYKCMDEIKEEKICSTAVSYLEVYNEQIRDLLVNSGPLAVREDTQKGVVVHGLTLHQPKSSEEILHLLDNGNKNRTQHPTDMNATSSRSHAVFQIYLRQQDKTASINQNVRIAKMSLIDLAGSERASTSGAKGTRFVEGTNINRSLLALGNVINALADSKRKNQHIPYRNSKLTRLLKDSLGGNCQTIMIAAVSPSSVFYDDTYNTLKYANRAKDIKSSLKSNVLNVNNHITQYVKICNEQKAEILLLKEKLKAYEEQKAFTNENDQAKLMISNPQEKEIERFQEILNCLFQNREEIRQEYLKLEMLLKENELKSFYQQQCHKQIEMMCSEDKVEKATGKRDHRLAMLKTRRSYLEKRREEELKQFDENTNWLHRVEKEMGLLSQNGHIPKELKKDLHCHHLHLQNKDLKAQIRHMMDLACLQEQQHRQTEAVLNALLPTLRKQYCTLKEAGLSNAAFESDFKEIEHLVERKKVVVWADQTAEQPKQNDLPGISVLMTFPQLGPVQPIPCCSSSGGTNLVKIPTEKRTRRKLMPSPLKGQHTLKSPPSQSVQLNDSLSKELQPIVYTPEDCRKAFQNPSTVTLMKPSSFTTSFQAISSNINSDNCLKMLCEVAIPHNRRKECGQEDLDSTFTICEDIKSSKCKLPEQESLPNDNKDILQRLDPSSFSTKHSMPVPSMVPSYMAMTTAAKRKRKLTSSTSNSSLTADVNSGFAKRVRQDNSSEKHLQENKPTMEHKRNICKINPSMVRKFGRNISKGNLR
Chain of KIF18a-Microtubule Complex (Q2XVP4 whole entry partner, looked up): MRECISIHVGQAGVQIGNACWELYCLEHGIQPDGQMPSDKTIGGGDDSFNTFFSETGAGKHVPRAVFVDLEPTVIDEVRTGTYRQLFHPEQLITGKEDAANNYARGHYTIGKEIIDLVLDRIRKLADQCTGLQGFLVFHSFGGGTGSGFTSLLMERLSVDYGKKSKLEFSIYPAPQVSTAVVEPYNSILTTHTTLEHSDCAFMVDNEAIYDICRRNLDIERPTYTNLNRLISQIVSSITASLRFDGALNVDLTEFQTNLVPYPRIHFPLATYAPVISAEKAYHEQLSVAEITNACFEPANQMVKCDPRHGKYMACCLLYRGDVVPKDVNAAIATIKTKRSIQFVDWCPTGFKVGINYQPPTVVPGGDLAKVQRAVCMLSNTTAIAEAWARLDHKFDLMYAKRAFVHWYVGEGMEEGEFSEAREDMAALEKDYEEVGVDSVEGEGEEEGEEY
Chain of KIF18a-Microtubule Complex (P02554 whole entry partner, looked up): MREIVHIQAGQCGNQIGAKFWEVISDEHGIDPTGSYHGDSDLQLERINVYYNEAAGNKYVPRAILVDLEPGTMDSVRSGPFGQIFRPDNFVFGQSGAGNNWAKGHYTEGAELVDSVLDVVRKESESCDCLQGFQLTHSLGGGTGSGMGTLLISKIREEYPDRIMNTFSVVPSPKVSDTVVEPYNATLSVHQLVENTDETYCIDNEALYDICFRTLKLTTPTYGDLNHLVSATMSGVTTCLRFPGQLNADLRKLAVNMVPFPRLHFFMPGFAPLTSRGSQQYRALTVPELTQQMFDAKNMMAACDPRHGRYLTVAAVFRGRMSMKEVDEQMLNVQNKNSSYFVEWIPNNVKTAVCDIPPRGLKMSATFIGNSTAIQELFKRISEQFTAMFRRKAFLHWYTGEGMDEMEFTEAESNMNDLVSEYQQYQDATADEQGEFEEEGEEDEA
Summary of the method: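 kon and koff determined by global progress curve analysis, with ADP formation measured by ADP-Glo. Time- and dose-dependent progress curves were globally fitted to a Michaelis-Menten model with one-step slow-binding inhibition.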

[2] = test system: HCC15 cells; assay: Cell viability of KIF18a-sensitive cell lines, HCC15 (Cell Titre-Glo, 7 days); assay type: cell-based; details: HCC-15 cells, 7 days, Cell Titre-Glo, read-out: HCC-15 IC50
Summary of the method: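 Seeding was 24 h before dosing: HCC15 at 600 cells/well in RPMI-1640/10% FBS, OVCAR-3 at 1000 cells/well in RPMI-1640/20% FBS plus insulin, JIMT-1 at 1000 cells/well in DMEM/10% FBS. After serially diluted compound, cells grew 7 days at 37° C. Cell Titre-Glo luminescence was converted to ATP; IC50 came from a four-parameter fit.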

[3] = test system: NIH:OVCAR-3 cells; assay: Cell viability of KIF18a-sensitive cell lines, NIH:OVCAR-3 (Cell Titre-Glo, 7 days); assay type: cell-based; details: NIH-OVCAR3 cells, 7 days, Cell Titre-Glo, read-out: NIH-OVCAR3 IC50
Procedure: (§1) Cell Viability of KIF18a-Sensitive Cell Lines
(§2) Cell lines were seeded as follows 24 hours before compound treatment: HCC15 (Korean Cell Line Bank) 600 cell/well, 95 μL of RPMI-1640 media supplemented with 100 units/mL penicillin, 100 units/mL streptomycin and 10% FBS; NIH:OVCAR-3 (ATCC), 1000 cell/well, 95 μL of RPMI-1640 media supplemented with 100 units/mL penicillin, 100 units/mL streptomycin, 0.01 mg/mL bovine insulin, and 20% FBS; JIMT-1 (Addexbio) 1000 cell/well, 95 μL of DMEM media supplemented with 100 units/mL penicillin, 100 units/mL streptomycin, and 10% FBS.
(§3) Test compounds were added to cells in a 20× dilution scheme by adding 5 μL of serially diluted compound to the plate, and the treated cells were incubated for an additional 7 days in a 37° C., 5% CO2 incubator. DMSO was used as the negative control (0% effect), and wells omitting cells were used as the positive control (100% effect). The cells were incubated for seven days, and cell viability determined via the Promega Cell Titre-Glo® Assay kit. Luminescence units were converted to ATP concentrations via an ATP standard curve (10 point, 2-fold dilution from 5 uM). % Inhibition was calculated for each well as: ([max−min]−[test−min])/[max−min]. IC50 values were calculated from concentration vs. % Inhibition data via a four-parameter variable slope model.

[4] = test system: JIMT-1 cells; assay: Cell viability of KIF18a-sensitive cell lines, JIMT-1 (Cell Titre-Glo, 7 days); assay type: cell-based; details: JIMT-1 cells, 7 days, Cell Titre-Glo, read-out: JIMT-1 IC50
Procedure: as §1, §2, §3

[5] = test system: OVCAR-3 tumor cells implanted in Balb/C nude mice; assay: In vivo activity, OVCAR-3 tumor xenograft, tumor growth inhibition; design: species or system mouse; details: OVCAR3 model
Procedure: (§4) Assessment of In Vivo Activity
(§5) OVCAR-3 (ATCC) tumor cells were maintained in vitro in RPMI-1640 medium supplemented with 20% fetal bovine serum, 0.01 mg/mL bovine insulin and 1% Anti-Anti at 37° C. in an atmosphere of 5% CO2 in air. HCC15 (DSMZ) tumor cells were maintained in vitro in RPMI 1640 medium supplemented with 10% fetal bovine serum and 1% Anti-Anti at 37° C. in an atmosphere of 5% CO2 in air.
(§6) The tumor cells were sub-cultured twice weekly. The cells growing in an exponential growth phase were harvested and counted for tumor inoculation.
(§7) Tumor cells (10×10^6) in 0.2 mL of PBS mixed with Matrigel (50:50) were inoculated subcutaneously on the right flank of each mouse. When the average tumor volume reached 110-175 mm^3, animals were randomized into groups of 10 and treatment started. OVCAR-3 cells were implanted in Balb/C nude mice, and HCC15 cell were implanted in SCID Beige mice.
(§8) Compounds were dosed once or twice a day (12 h) orally. Tumor Growth Inhibition (TGI) was calculated using the formula: TGI (%)=[1−(TN−T0)/(VN−V0)]×100; TN is the average tumor volume of a treatment group at the indicated timepoint, T0 is the average tumor volume of the treatment group on treatment day 0, VN is the average tumor volume of the vehicle control group at the indicated timepoint, and V0 is the average tumor volume of the vehicle group on treatment day 0. P value was calculated based on tumor size by One-Way ANOVA with GraphPad Prism 9.4.0 compared with the vehicle group, respectively. **** indicates p<0.0001.
(§9) The tumor volume of vehicle- and compound-treated mice as a function of time after start of treatment and the results of treatments with selected compounds on SCID Beige mice or nude mice implanted with HCC15 or OVCAR-3 are shown in FIGS. 1A-1E.

[6] = test system: HCC15 tumor cells implanted in SCID Beige mice; assay: In vivo activity, HCC15 tumor xenograft, tumor growth inhibition; design: species or system mouse; details: HCC15 model
Procedure: as §4, §5, §6, §7, §8, §9

[7] = molecular target: hKIF18A (1-374) (Homo sapiens (Human), UniProt Q8NI77); assay: Inhibition of KIF18A microtubule-dependent ATPase activity (ADP-Glo)
Chain of hKIF18A (1-374) (Q8NI77 whole entry, looked up): as the sequence (Q8NI77 whole entry, looked up) above
Chain of hKIF18A (1-374) (Q2XVP4 whole entry partner, looked up): as the sequence (Q2XVP4 whole entry partner, looked up) above
Chain of hKIF18A (1-374) (P02554 whole entry partner, looked up): as the sequence (P02554 whole entry partner, looked up) above
Procedure: Biological Assays Inhibition of KIF18A Microtubule-Dependent ATPase Activity:
Test compounds were plated in a 3× dilution scheme in a 384-well plate. Assay buffer: 80 mM PIPES (pH 6.9), 1 mM MgCl2, 75 mM KCl, 1 mM EGTA, 1 mM DTT, 0.01% BSA, 0.005% Tween-20, 1 μM Taxol in H2O. […] After incubation at room temperature for 30 min, 2.5 μL of microtubule mix was added [0.2 mg/mL pre-formed microtubules, 2.0 mM ATP in assay buffer], the plate was centrifuged for 30 s and then incubated at 28° C. for 60 min. 5 μL of Promega® ADP-Glo Max R1 was added, the plate was centrifuged for 30 s, and the mixture incubated for 4 h at room temperature. 10 μL of Promega® ADP-Glo Max R2 was added, the plate centrifuged for 30 s, and incubated for 60 min at room temperature. Luminescence was measured with an Envision plate reader, and % Inhibition was calculated for each well as: ([max−min]−[test−min])/[max−min]. IC50 values were calculated from concentration vs. % Inhibition data via a four-parameter variable slope model.

[8] = KIF18A microtubule-dependent ATPase activity, biochemical assay

Row | SMILES | kon (on-rate from binding kinetics assay) ([1]; global progress curve analysis) | disc. t1/2 (dissociation half-life ln(2)/koff) [1] | Ki [1] | koff [1] | IC50 ([2]; HCC15, 168 h) | IC50 ([3]; Homo sapiens, OVCAR-3, 168 h) | IC50 ([4]; Homo sapiens, 168 h) | TGI ([5]; 30 mg/kg QD PO) | TGI ([5]; 60 mg/kg QD PO) | TGI ([6]; 10 mg/kg BID PO) | TGI ([6]; 30 mg/kg BID PO) | TGI ([6]; 60 mg/kg BID PO) | IC50 [7, 8] | also measured
1 | CC(C)(C)NS(=O)(=O)c1cccc(C(=O)N2CC3(CCC4(CC4)CC3)c3cc(NS(C)(=O)=O)ccc32)c1 [Compound 22, N-(tert-butyl)-3-(5″- (methylsulfonamido)dispiro[cyclo-propane-1,1′-cyclohexane-4′,3″-indoline]-1″-carbonyl)benzenesulfonamide] | 10600 M⁻¹ s⁻¹ | 38 h | 0.55 nM | 5e-06 s⁻¹ | 11 nM | 9.7 nM | 7.8 nM | 72 ± 17% | 82 ± 10% | 30 ± 15% | 72 ± 6% | 82 ± 9% | 11 nM | TGI ([5]; 10 mg/kg QD PO): 24 ± 26%; IC50 [7]: 9.4 nM
2 | CCS(=O)(=O)Nc1ccc2c(c1)C1(CCC3(CC3)CC1)CN2C(=O)c1cccc(S(=O)(=O)NC(C)(C)C)c1 [Compound 134, N-(tert-butyl)-3-(5″-(ethylsulfonamido)dispiro[cyclopropane-1,1′-cyclohexane-4′,3″-indoline]-1″-carbonyl)benzenesulfonamide] | 15000 M⁻¹ s⁻¹ | 40 h | 0.34 nM | 5e-06 s⁻¹ | 5.1 nM | 5.1 nM | 4 nM | 104 ± 7% | 109 ± 2% | 61 ± 10% | 89 ± 7% | 94 ± 5% | 16 nM | TGI ([5]; 10 mg/kg BID PO): 60 ± 17%; TGI ([5]; 30 mg/kg BID PO, subfigure 1D): 111 ± 1%; TGI ([5]; 30 mg/kg BID PO, subfigure printed 1R): 110 ± 1%; TGI ([5]; 60 mg/kg BID PO): 112 ± 1%
3 | CS(=O)(=O)Nc1ccc2c(c1)C1(CCC3(CC3)CC1)CN2C(=O)c1cccc(S(=O)(=O)C2CC(F)(F)C2)c1 [Compound 322, N-(1″-(3-((3,3-difluorocyclobutyl)sulfonyl)benzoyl)dispiro[cyclopropane-1,1′-cyclohexane-4′,3″-indolin]-5″- yl)methanesulfonamide] | 10300 M⁻¹ s⁻¹ | 5.7 h | 3.3 nM | 3.33e-05 s⁻¹ | 43 nM | 40 nM | 32 nM | – | – | – | – | – | 21 nM | –
4 | CCS(=O)(=O)Nc1ccc2c(c1)[C@]1(CC[C@@H](C(F)F)CC1)CN2C(=O)c1cccc(S(=O)(=O)NC(C)(C)C)c1 [Compound 333a] | 7780 M⁻¹ s⁻¹ | 53 h | 0.47 nM | – | – | – | – | – | – | – | – | – | 18 nM | koff (off-rate from binding kinetics assay) ([1]; global progress curve analysis): 3.61e-06 s⁻¹; IC50 [2]: 22 nM; IC50 [3]: 17 nM; IC50 [4]: 24 nM
